Data set [1] has as its system H3K9me3 oligonucleosomes. As to the kind of experiment: Chromatin coprecipitation, H3K9me3 oligonucleosomes. The format is binding, Xenopus laevis. The conditions noted are these: 6.7 nM oligonucleosomes, 1 μM protein, 150 mM NaCl, 5 mM MgCl2, 1 h on ice. Here is the method:
6.7 nM oligonucleosomes were incubated with 1 μM recombinant protein in 100 μl binding buffer (10 mM triethanolamine (pH 7.5), 150 mM NaCl, 5 mM MgCl2, 0.1 mM EDTA, 0.1% (v/v) Triton-X100) for 1 h on ice. Precipitated chromatin complexes were recovered by centrifugation at 16,100g for 30 min at 4°C. Pellets were washed once with 0.5 ml binding buffer and centrifuged for 15 min at 4 °C. Precipitated material was resuspended in 10 μl 1 × SDS loading buffer and boiled for 5 min before running on SDS–PAGE.
Supplementary Table 1: Summary of conditions used in the different experiments of this study.
experiment result modification template Temp. [NaCl] [MgCl2]
chromatin Fig. 1e,f; Fig. S1f-h; H3K9me3 oligo- 4 150 5

Data set [2] concerns H3K9me3 oligonucleosomes. Description: Chromatin sedimentation (clustering), H3K9me3 oligonucleosomes. The format is biochemical, Xenopus laevis. Particulars: 150 mM NaCl, saturating protein (5 μM) or titration, EtBr fluorescence, n=3. Here is the method: Figure 3 hHP1β clusters oligonuclesomal arrays in dependence of H3K9me3. (a) Oligonucleosomes (2.5 nM) were incubated with increasing concentrations of hHP1β WT or I161A at 150 mM NaCl. DNA remaining in the supernatant after centrifugation was incubated with EtBr and measured by fluorescence reading. Data were normalized to amounts in absence of added protein. Averages of three independent experiments are plotted; error bars represent s.d.; n=3. (b) Analysis of the hydrodynamic radius of oligonucleosomes (10 nM; DNA labelled with ATTO 610) in the presence of increasing concentrations of hHP1β WT or I161A by FCS at 150 mM NaCl. For details on experimental setup see Supplementary Fig. 3. Error bars represent s.d.; n=3. (c) Oligonucleosomes were reconstituted after mixing H3K9me0 and H3K9me3 octamers at different ratio. Chromatin precipitation analysis at 150 mM NaCl was carried out with hHP1β WT at saturating concentration. Data are presented as in a. (d) Precipitation behaviour of oligonucleosomes (2.5 nM) was analysed at different concentrations of NaCl with hHP1β WT at saturating concentration. Data are presented as in a. (e) H3K9me3-containing chromatin was reconstituted using wild-type core histones or tailless H2A, H2B or H4. Oligonucleosomes (2.5 nM) were incubated with increasing concentrations of hHP1β WT at 150 mM NaCl. Data are presented as in a. (f) Chromatin coprecipitation of hHP1β with H3K9me3-containing oligonucleosomes reconstituted with wild-type or tailless core histones at the indicated concentrations of MgCl2. Precipitated material was analysed by western blotting. The region of the western blot membrane of the experiment at 7.5 mM MgCl2 containing histones was stained with Ponceau. (g) Oligonucleosomes at 50 mM NaCl were incubated with hHP1β WT or I161A. Complexes were fixed with 0.05% (v/v) glutaraldehyde, spotted on mica surfaces and analysed by scanning force microscopy. Control, no protein added; scale bar, 100 nm. (h) Quantification of results representatively shown in g according to the classification on the top: A, extended; B, partially condensed; C, fully condensed; D; aggregates; n>50 for each condition.
For saturating conditions, 2.7 nM oligonucleosomes were incubated with 5 μM hHP1β proteins in 100 μl sedimentation buffer (10 mM triethanolamine (pH 7.5), 150 mM NaCl, 0.1 mM EDTA) for 1 h on ice. For non-saturating conditions, 3 μM recombinant proteins were used and the NaCl concentration in the sedimentation buffer was lowered to 100 mM. After incubation, 40 μl per sample was placed into a well of a 96-well plate and kept as ‘input'. The rest was centrifuged at 16,100g for 30 min at 4°C. 40 μl supernatant was carefully removed and placed into a 96-well plate (‘output'). For quantification of chromatin DNA, the input and output samples were incubated with 40 μl 0.5 μg ml^−1 ethidium bromide and fluorescence was measured on a Plate CHAMELEON II fluorescence plate reader (Hidex, Turku, Finland) using a 360 nm (±5 nm) excitation filter and a 612 nm (±5 nm) emission filter. For each sample the ratio of DNA concentrations after and before centrifugation (output/input) was calculated.
Supplementary Table 1: Summary of conditions used in the different experiments of this study. experiment result modification template Temp. [NaCl] [MgCl2] […]
chromatin Fig. 1e,f; Fig. S1f-h; H3K9me3 oligo- 4 150 5 coprecipitation Fig. S2b nucleosomes
Fig. S7d,f; Fig.S9c nucleosomes […]
chromatin sedimentation Fig. 4a; H3K9me3 oligo- 4 150 0
(single point) Fig. S3b nucleosomes […]
chromatin sedimentation. oligo-(titration) Fig. 3a H3K9me3 nucleosomes 4 150 0 […]
crosslinking Fig. S6e,f nucleosomes […]
crosslinking Fig. S7a,b nucleosomes
EMSA Fig. 1g; Fig. 5c; n//a RT 100 5
1Preincubation of oligonucleosomes and h HP1β was performed at 4 °C . Measurements wer e carried out at the in dicated te mperature.
2in increments o f 0 .5 mM
3MgCl2 was added at the end of incubation to coprecipitate oligonucleosomes a nd bound hHP1β.

The test system of another data set is mouse fibroblasts. Description: Subnuclear distribution of EGFP fusion proteins. It counts as cell-based. Particulars: GFP fusions transiently expressed, n >100. The source says: Supplementary Figure 11: Subnuclear distribution of hHP1 β wild type and mutant proteins .
(a) The indicated proteins fused to EGFP were transiently expressed in mouse fibroblast cells.
Representative fluorescence confocal images are shown. DNA was stained with DAPI. Scale bar […]
(b) Quantification of the subnuclear distribution of the hHP1β WT and mutant proteins analyzed as in ( a) by visual inspection. EGFP signal in each transfected cell was categoriz ed into ‘dotted’ (see WT distribution in panel a) or ‘diffuse’ (see distribution of I161A in panel a). n >100 for each condition.
(1 picture or pasted object on this page, not shown here)

Data set [3] deals with chromatin reporter array in U2OS cells. Description: Chromatin reporter array (LacO) unfolding. The conditions noted are these: doxycycline 1 μg ml^−1 24 h, LacI-tethered, n>300. The format is cell-based. The source says:
Figure 7 hHP1β dimerization is required for maintaining condensed cellular chromatin states. (a) Schematic diagram of the transgene system used to test chromatin compaction effects of hHP1β. A tandem array of the construct has been integrated into the genome of U2OS mammalian cells. Dox, doxycycline; rtTA, reverse tetracycline-controlled TET-VP16 transactivator, whose binding to tetracycline responsive elements (RE) is activated by doxycycline. (b) Together with mCherry-LacI, the indicated fusion proteins were transiently expressed in U2OS cells containing the chromatin reporter array as described in a. Representative confocal images in the absence or after induction of transcription from the array with doxycycline (Dox) are shown. DNA was stained with DAPI. Inlets show enlarged chromatin reporter array; scale bar, 10 μm. (c) Quantification of the results shown in b together with results of similar experiments using additional hHP1β mutant proteins. Averages of three independent experiments are plotted; error bars represent s.d.; n>300 for each condition; asterisks represent P<0.05 according to Student's t-test.
U2OS 2-6-3 CLTon cells[38] were kindly provided by Dr Supriya Prasanth (University of Illinois, IL, USA) and maintained in DMEM (high glucose+GlutaMax) (GIBCO/Invitrogen, Darmstadt, Germany) supplemented with 10% (v/v) TET system approved fetal bovine serum (Clontech, Saint-Germain-en-Laye, France), 50 μg ml^−1 hygromycin (Carl Roth, Karlsruhe, Germany) and 200 μg ml^−1 G418 (Clontech, Saint-Germain-en-Laye, France). For fluorescence microscopy, cells were grown on coverslips in a six-well plate without antibiotics. 500 ng plasmid DNA was transfected using Lipofectamine LTX and Plus reagent (Invitrogen, Darmstadt, Germany). 20 h post transfection, cells were treated with 1 μg ml^−1 doxycycline for 24 h for induction of rtTA expression. Cells were washed twice with PBS and fixed with 3.7% (v/v) formaldehyde/PBS for 10 min at RT. […] P values (according to Student's t-test) were calculated using GraphPad QuickCals (GraphPad, CA, USA).

For the next data set, the target named is T1, H3K9me3 peptide (Homo sapiens, UniProt P68431).
T1 construct: C-terminally biotinylated histone H3 peptides (aa 1–20)
Description: SPR, immobilized H3K9me3 peptide. The format is binding. Particulars: 0.1 µM hHP1β WT bound, 950 RU; 1 or 20 μM free H3K9me3, 20 μM H3K9me0 peptide. Here is the method:
SPR measurements were performed on a Biacore 2000 instrument (GE Healthcare, Buckinghamshire, UK) at 298 K in 10 mM triethanolamine (pH 7.5), 150 mM NaCl, 0.1 mM EDTA, 1 mM DTT, 0.005% (v/v) Tween-20. Biotinylated ligands were immobilized on streptavidin-coated sensor chips SA (GE Healthcare, Buckinghamshire, UK). Before immobilization, sensor chips were conditioned as described by the manufacturer. To obtain low surface densities (5–24 RU), 5 nM biotinylated H3 peptide was injected at a low rate of 10 μl min^−1 using varying contact times. High surface densities (>700 RU) were prepared by injecting […] peptide (10 μl min^−1) until the SA surface was saturated. Peptide-containing chips were regenerated by applying three short pulses of 0.05% (w/v) SDS followed by an injection of 1.5 M NaCl for baseline stabilization. For binding assays, hHP1β proteins were injected at […] (serial twofold dilutions) for 2 min (30 μl/min). Dissociation was recorded for up to 5 min. A streptavidin surface without ligands served as reference. In addition, blank runs were performed for double referencing. Data evaluation was performed by steady-state analysis assuming a Langmuir 1:1 binding model using BIAevaluation 4.1 and Prism 5.04 (GraphPad, CA, USA) software. Binding to the unmodified peptides was analysed with maximum binding (RUmax) set to the corresponding values obtained with the modified peptides.
Figure S8 Hiragami-Hamada et al.
20 30 one site-specific 20 30 one site-specific […]
time [s] concentration [ μM] time [s] concentration [ μM]
40 two site-specific 40 one site-specific […]
time [s] concentration [ μM]
Supplementary Figure 8: hHP1β binds nucleosomes as dimer.
(a) Dynamic light scattering (DLS) analysis of recombinant hHP1β WT (blue) and I161A (red).
(b) SPR response traces of injection of hHP1β WT into Biacore cells containing biotinylated H3K9me3-peptide immobilized on a sensory chip via covalently coated streptavidin. Immobilized peptide was at 24
RU. Injection series are from 0.024 to 50 µM protein concentration.
(c) Blot of signal over concentration of the titration in (b) to deduce an apparent Kd value. Best fitting was achieved by one site-specific binding model.
(d ) Same analysis as in (b) but with hHP1β I161A.
(e) Blot of signal over concentration of the titration in (d) to deduce an apparent Kd value. […]
(also on this page, place not known: dimer . hHP1 β H3K9me3 - se nsory ( b) site -specific ( b) hHP1 β ( d) site -specific hHP1 β modifi ed H3K9me3 -mononucleosomes H3 -tails -30 -50 -8 -4 200 -10 110 -50 -10 -30 [μM] [μM] -10 190 150 -10 110 200 -10 110 μl/min μl/min μl/min -50 150 response [RU] response [RU] response [RU] response [RU] response [RU] [μM] 10 50 response [RU]40 0 0 [μM] 10 30 50 response [RU] 40 0 0 40 [μM] 10 30 50 response [RU] 140 40 0 120 0 40 response [RU] response [RU] response [RU] Kd Kd μM Kd μM 0.8 0.6 0.4 0.2 0 1 1.0 0.8 0.6 0.4 0.2 0.0 mass fraction)
On the technique in general: SPR reads the build-up and loss of mass on a sensor chip optically.

Turning to “hHP1β W42A: CD point mutant of hHP1β, abolishing H3K9me3 binding”, in the data set with H3K9me3 oligonucleosomes [1], the “recovery with H3K9me3 oligonucleosomes” value was “loss of recovery of hHP1β with H3K9me3 oligonucleosomes”. The “chromatin clustering/aggregation, H3K9me3” value with H3K9me3 oligonucleosomes [2] is “failed to cluster oligonucleosomes”. In the data set with mouse fibroblasts, the subnuclear distribution entry is reported as “diffuse distribution”. Besides, the “unfolding of the array on activation” value in data set [3] is recorded as “behaved very similar to the WT protein”.

As for “H3K9me0: free unmodified H3 tail peptide used as competitor [reference compound]”, in the data set with H3K9me3 peptide, the “competition of residual hHP1β WT SPR signal by free H3 peptide” value is “competed specifically with free H3K9me3 peptide ligand but not H3K9me0”.

With “H3K9me3 peptide: free H3K9me3 tail peptide used as competitor [reference compound]”, in the data set with H3K9me3 peptide, the “competition of residual hHP1β WT SPR signal by free H3 peptide” value was “competed specifically”.
